Usually IC50 stands for the midpoint of a concentration-inhibition curve. The term inhibition denotes the drop in the measured response relative to a control, in per cent.

In US9623028B2, “Methods of treating a cancer using substituted pyrrolopyrimidine compounds, compositions thereof” (Signal Pharmaceuticals, LLC, priority 2014, dated 2017) one finds IC50 and inhibition data, which are given here for 1 compound.

Experiment [1] addresses T1, CLK1 (Homo sapiens (Human), UniProt P49759). To be noted: read-out: CLK1 (IC50).
The target in experiment [2] is T2, CLK2 (Homo sapiens (Human), UniProt P49760). Particulars: read-out: CLK2 (IC50).
The target in experiment [3] is T1, CLK1. In words: biochemical. To be noted: read-out: CLK1 (% Inh.), % inhibition at 3 μM.
Experiment [4] addresses T2, CLK2. In words: biochemical. To be noted: read-out: CLK2 (% Inh.), % inhibition at 3 μM.

T1 sequence (P49759 whole entry): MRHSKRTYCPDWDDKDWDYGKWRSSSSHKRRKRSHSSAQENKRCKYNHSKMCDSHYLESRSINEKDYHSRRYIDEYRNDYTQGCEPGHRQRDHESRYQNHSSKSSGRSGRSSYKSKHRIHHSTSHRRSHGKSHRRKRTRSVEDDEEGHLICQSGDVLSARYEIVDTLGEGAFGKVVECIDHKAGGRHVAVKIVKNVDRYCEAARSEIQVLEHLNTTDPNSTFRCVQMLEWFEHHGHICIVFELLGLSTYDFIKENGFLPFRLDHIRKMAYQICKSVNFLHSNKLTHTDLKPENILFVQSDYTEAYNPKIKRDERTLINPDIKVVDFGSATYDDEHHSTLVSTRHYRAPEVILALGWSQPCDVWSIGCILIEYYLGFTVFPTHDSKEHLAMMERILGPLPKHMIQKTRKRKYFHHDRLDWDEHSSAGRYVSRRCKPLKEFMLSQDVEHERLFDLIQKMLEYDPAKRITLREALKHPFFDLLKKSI
T2 sequence (P49760 whole entry): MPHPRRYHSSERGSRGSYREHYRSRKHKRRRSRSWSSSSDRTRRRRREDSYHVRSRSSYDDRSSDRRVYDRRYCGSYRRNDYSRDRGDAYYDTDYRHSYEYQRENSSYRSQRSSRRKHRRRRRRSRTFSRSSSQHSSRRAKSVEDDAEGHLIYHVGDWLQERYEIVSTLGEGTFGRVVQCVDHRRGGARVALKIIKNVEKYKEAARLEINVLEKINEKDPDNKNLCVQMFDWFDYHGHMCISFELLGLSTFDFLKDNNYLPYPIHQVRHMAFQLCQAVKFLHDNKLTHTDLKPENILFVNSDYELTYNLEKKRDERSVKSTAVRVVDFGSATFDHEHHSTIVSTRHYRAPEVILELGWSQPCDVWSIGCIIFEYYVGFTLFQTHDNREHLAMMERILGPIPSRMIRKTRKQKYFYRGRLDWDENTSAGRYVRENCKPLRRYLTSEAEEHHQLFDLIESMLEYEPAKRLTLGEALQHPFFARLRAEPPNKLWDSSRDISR

As for `CNC(=O)c1ccc(-c2c[nH]c3nc(Nc4ccc(C(=O)NC5CN(C)C5)cc4OC)nc(OC4CCC(C)(O)CC4)c23)cc1` (stereo not shown) [Compound 349, 4-(4-((1s,4s)-4-hydroxy-4-methylcyclohexyloxy)-5-(4-(methylcarbamoyl)phenyl)-7H-pyrrolo[2,3-d]pyrimidin-2-ylamino)-3-methoxy-N-(1-methylazetidin-3-yl)benzamide], the values for the IC50 on CLK1 [1] and at CLK2 [2] were 59.3 nM and 1.43 nM, respectively. Moreover, the inhibition at 3 µM on CLK1 [3] turned out to be 101%; on CLK2 [4], 102%.
